The test system of one assay is E. coli. The assay can be described thus: Bacterial growth inhibition by OD600 absorbance, E. coli. The assay is classed as cell-based, E. coli (DH5-alpha). The following applies: peptide 10 μM, 24 hours at 37° C., OD 600 nm. The method in brief:
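Peptides added to bacterial culture at 10 μM final (0.1% DMSO); X. citri grown at 30° C., E. coli at 37° C., for 24 h. OD600 read before and after growth; percent inhibition derived relative to 0.1% DMSO negative and oxytetracycline/streptomycin positive controls.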

A further assay deals with A. tumefaciens. The following applies: 24 h, 10 μM.
For another assay, the system named is E. amylovora. The settings on record: 24 h, 10 μM.
A further assay deals with X. citri. Description: Bacterial growth inhibition by OD600 absorbance, X. citri. In kind it is cell-based, X. citri subsp. citri (ATCC 49118). The following applies: peptide 10 μM, 24 hours at 30° C., OD 600 nm.
For a further assay, the system named is L. crescens. The settings on record: 10 μM.

No end group written: not given here. Some results are limits rather than exact numbers.

For the sequence “KWKSFIKNLEKVLKKGPILANLVSIV [compound 23]”, in the assay with E. coli, the “growth inhibition, E. coli” value is 100.00%. The “growth inhibition, A. tumefaciens” value in the assay with A. tumefaciens stood at 100.00%. In addition, in the assay with E. amylovora, the “growth inhibition, E. amylovora” value is given as 100.00%. Besides, in the assay with X. citri, the “growth inhibition, X. citri” value is reported as 100.00%. Moreover, the “growth inhibition, L. crescens” value with L. crescens was determined as 99.03%.
For the sequence “KFFKRLLKSVRRAVKKFRKKPRLIGLSTLL [compound 8]”, the “growth inhibition, E. coli” value in the assay on E. coli was determined as 100.00%. Further, in the assay on A. tumefaciens, the “growth inhibition, A. tumefaciens” value was found to be 99.88%. The “growth inhibition, E. amylovora” value in the assay on E. amylovora is recorded as 100.00%. In the assay with X. citri, the “growth inhibition, X. citri” value worked out at 100.00%. Further, the “growth inhibition, L. crescens” value in the assay on L. crescens was less than 90%.
Take LNWGALLKHLLK [compound 139]: the “growth inhibition, E. coli” value in the assay with E. coli is listed as less than 90%. Moreover, the “growth inhibition, A. tumefaciens” value with A. tumefaciens was determined as 100.00%. In addition, the “growth inhibition, E. amylovora” value with E. amylovora was 100.00%. Further, the “growth inhibition, X. citri” value with X. citri is less than 90%. Moreover, the “growth inhibition, L. crescens” value in the assay with L. crescens is less than 90%.

The record behind these values is patent publication US20250381242A1 (INVAIO SCIENCES, INC., priority 2024, published 2025).
